From the supplement of paper PMC8671470
± gives the standard deviation of the averaged measurements.

Legend:
Conditions in all cases: 72 h
KCL-22 [1] = tested on: KCL-22
In short: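 Fifteen myeloid leukaemia lines in RPMI 1640 were treated for 72 h at 37 °C and 5% CO2 with five tenfold doses from 1 to 10,000 nM, in duplicate. ATP luminescence was normalised to vehicle and to a positive control at 10 µM, then fitted with a four-parameter log-logistic model. The IC50 came from these fits.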

HL-60 [2] = test: cell viability (% survival relative to DMSO control); higher = less cytotoxic
In short: (§1)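 Four-parameter log-logistic fits in drc and PharmacoGx supplied area under the curve where it is given. Underlying viability came from CellTiter-Glo, normalised to DMSO and proteasome-inhibitor wells, with the proteasome inhibitor at 10 μM. HL-60 cells in RPMI 1640 plus 10% FBS had been rescreened against the full library at five tenfold concentrations of 1–10,000 nM, in duplicate on 384-well plates, with DMSO or 100 nM of one of three metabolic inhibitors, for 72 h at 37 °C, 5% CO2.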

BV-173 = test: cell viability (% survival relative to DMSO control, bortezomib = 0%); higher = less cytotoxic
In short: (§2)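 After 72 h at 37 °C with 5% CO2, cell viability in 384-well plates was measured by CellTiter-Glo luminescence. The plates held compounds pre-printed at 1, 10, 100, 1000 or 10000 nM in duplicate, and cells from 10 AML and 5 CML lines seeded at densities titrated to linear growth. Percent survival is the duplicate mean, normalised to vehicle as 100% and a 10 µM positive control as 0%.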

HEL = test: as above
In short: as §2

HL-60 [3] = test: as above
In short: as §2

K-562 = test: as above
In short: as §2

KCL-22 [4] = test: as above
In short: as §2

KG-1 = test: as above
In short: as §2

KU-812 = test: as above
In short: as §2

LAMA-84 = test: as above
In short: as §2

ML-2 = test: as above
In short: as §2

MOLM-13 = test: as above
In short: as §2

MV4-11 = test: as above
In short: as §2

Mono-Mac-6 = test: as above
In short: as §2

NOMO-1 = test: as above
In short: as §2

SHI-1 = test: as above
In short: as §2

THP-1 = test: as above
In short: as §2

HL-60 [5] = test: area under dose-response curve (viability, 1 nM-10 uM) (fraction (0-1)); higher = more sensitive
In short: as §1

OC[C@H]1N[C@@H](c2c[nH]c3c(O)ncnc23)[C@H](O)[C@@H]1O [Forodesine]
IC50 (cell viability) (KCL-22 [1]): > 10 µM | cell viability (HL-60 [2]; 0.001 µM, co-treatment: AZD3965 100 nM): 97.5 ± 7.8% | cell viability (HL-60 [2]; 0.001 µM, co-treatment: DMSO vehicle): 101 ± 2.1% | cell viability (HL-60 [2]; 0.001 µM, co-treatment: GSK2194069 100 nM): 100 ± 3.5% | cell viability (HL-60 [2]; 0.001 µM, co-treatment: pictilisib 100 nM): 79.7 ± 8.4% | cell viability (HL-60 [2]; 0.01 µM, co-treatment: AZD3965 100 nM): 105 ± 1.2% | cell viability (HL-60 [2]; 0.01 µM, co-treatment: DMSO vehicle): 105 ± 1.1% | cell viability (HL-60 [2]; 0.01 µM, co-treatment: GSK2194069 100 nM): 103 ± 2.1% | cell viability (HL-60 [2]; 0.01 µM, co-treatment: pictilisib 100 nM): 93.3 ± 3.5% | cell viability (HL-60 [2]; 0.1 µM, co-treatment: AZD3965 100 nM): 101 ± 4.2% | cell viability (HL-60 [2]; 0.1 µM, co-treatment: DMSO vehicle): 105 ± 5.4% | cell viability (HL-60 [2]; 0.1 µM, co-treatment: GSK2194069 100 nM): 96.2 ± 1.4% | cell viability (HL-60 [2]; 0.1 µM, co-treatment: pictilisib 100 nM): 99.5 ± 11% | cell viability (HL-60 [2]; 1 µM, co-treatment: AZD3965 100 nM): 101 ± 3% | cell viability (HL-60 [2]; 1 µM, co-treatment: DMSO vehicle): 99.2 ± 1.5% | cell viability (HL-60 [2]; 1 µM, co-treatment: GSK2194069 100 nM): 98.2 ± 2.8% | cell viability (HL-60 [2]; 1 µM, co-treatment: pictilisib 100 nM): 95.3 ± 3.3% | cell viability (HL-60 [2]; 10 µM, co-treatment: AZD3965 100 nM): 94 ± 6.8% | cell viability (HL-60 [2]; 10 µM, co-treatment: DMSO vehicle): 100.1 ± 0.95% | cell viability (HL-60 [2]; 10 µM, co-treatment: GSK2194069 100 nM): 95.9 ± 5.8% | cell viability (HL-60 [2]; 10 µM, co-treatment: pictilisib 100 nM): 103.8 ± 0.76% | cell viability (BV-173; 1 nM): 95.1% | cell viability (BV-173; 10 nM): 83.9% | cell viability (BV-173; 100 nM): 103% | cell viability (BV-173; 1000 nM): 91.1% | cell viability (BV-173; 10000 nM): 89.1% | cell viability (HEL; 1 nM): 103% | cell viability (HEL; 10 nM): 95.9% | cell viability (HEL; 100 nM): 102% | cell viability (HEL; 1000 nM): 92.6% | cell viability (HEL; 10000 nM): 88.6% | cell viability (HL-60 [3]; 1 nM): 92.1% | cell viability (HL-60 [3]; 10 nM): 98% | cell viability (HL-60 [3]; 100 nM): 95.8% | cell viability (HL-60 [3]; 1000 nM): 102% | cell viability (HL-60 [3]; 10000 nM): 90.2% | cell viability (K-562; 1 nM): 94.9% | cell viability (K-562; 10 nM): 94.4% | cell viability (K-562; 100 nM): 88.3% | cell viability (K-562; 1000 nM): 97.5% | cell viability (K-562; 10000 nM): 99.3% | cell viability (KCL-22 [4]; 1 nM): 102% | cell viability (KCL-22 [4]; 10 nM): 91.8% | cell viability (KCL-22 [4]; 100 nM): 100% | cell viability (KCL-22 [4]; 1000 nM): 99.2% | cell viability (KCL-22 [4]; 10000 nM): 91.3% | cell viability (KG-1; 1 nM): 107% | cell viability (KG-1; 10 nM): 94.2% | cell viability (KG-1; 100 nM): 95.4% | cell viability (KG-1; 1000 nM): 85.1% | cell viability (KG-1; 10000 nM): 82.8% | cell viability (KU-812; 1 nM): 89.9% | cell viability (KU-812; 10 nM): 96% | cell viability (KU-812; 100 nM): 96.8% | cell viability (KU-812; 1000 nM): 96.4% | cell viability (KU-812; 10000 nM): 75.4% | cell viability (LAMA-84; 1 nM): 96.4% | cell viability (LAMA-84; 10 nM): 90.1% | cell viability (LAMA-84; 100 nM): 94.7% | cell viability (LAMA-84; 1000 nM): 93% | cell viability (LAMA-84; 10000 nM): 88.7% | cell viability (ML-2; 1 nM): 92.7% | cell viability (ML-2; 10 nM): 85% | cell viability (ML-2; 100 nM): 95.3% | cell viability (ML-2; 1000 nM): 92.9% | cell viability (ML-2; 10000 nM): 85.7% | cell viability (MOLM-13; 1 nM): 81.3% | cell viability (MOLM-13; 10 nM): 89.2% | cell viability (MOLM-13; 100 nM): 93.1% | cell viability (MOLM-13; 1000 nM): 103% | cell viability (MOLM-13; 10000 nM): 84.1% | cell viability (MV4-11; 1 nM): 97.1% | cell viability (MV4-11; 10 nM): 94.5% | cell viability (MV4-11; 100 nM): 91.7% | cell viability (MV4-11; 1000 nM): 92.3% | cell viability (MV4-11; 10000 nM): 90.3% | cell viability (Mono-Mac-6; 1 nM): 109% | cell viability (Mono-Mac-6; 10 nM): 87.5% | cell viability (Mono-Mac-6; 100 nM): 107% | cell viability (Mono-Mac-6; 1000 nM): 108% | cell viability (Mono-Mac-6; 10000 nM): 88.5% | cell viability (NOMO-1; 1 nM): 97.9% | cell viability (NOMO-1; 10 nM): 92.3% | cell viability (NOMO-1; 100 nM): 97.3% | cell viability (NOMO-1; 1000 nM): 96.9% | cell viability (NOMO-1; 10000 nM): 87.4% | cell viability (SHI-1; 1 nM): 101% | cell viability (SHI-1; 10 nM): 95.5% | cell viability (SHI-1; 100 nM): 94.3% | cell viability (SHI-1; 1000 nM): 108% | cell viability (SHI-1; 10000 nM): 98.9% | cell viability (THP-1; 1 nM): 100% | cell viability (THP-1; 10 nM): 93.9% | cell viability (THP-1; 100 nM): 90.7% | cell viability (THP-1; 1000 nM): 83.1% | cell viability (THP-1; 10000 nM): 74.3% | area under dose-response curve (HL-60 [5]; co-treatment: AZD3965 100 nM): < 0.0301 | area under dose-response curve (HL-60 [5]; co-treatment: DMSO vehicle): < 0.0301 | area under dose-response curve (HL-60 [5]; co-treatment: GSK2194069 100 nM): < 0.0301 | area under dose-response curve (HL-60 [5]; co-treatment: pictilisib 100 nM): < 0.0301
